Reference: patent US11517575B2, “Use of minaprine to reduce tumor growth” (Institut Gustave-Roussy, priority 2019, dated 2022)

Legend:
CT26 tumor cells = experiment: Tumor growth in immunocompetent mice after intratumoral or intraperitoneal injection; format: in vivo, mouse; settings: Balb/c mice
Procedure: FIG. 7. Minaprine reduces tumor growth in immunocompetent mice after intratumoral or intraperitoneal injections. (A-C) 3 10^6 CT26 cells were implanted in immunocompetent BALB/c mice. Palpable tumors were injected with 10 μM Minaprine (or control) after 6 days. The tumor growth volume was then determined three times a week for the following 38 days (A and B). The percentage of mice survival was also determined (C). (D-I) 5 10^5 CT26 cells were implanted in immunocompetent BALB/c mice. After 12 days, tumor bearing mice were intraperitoneally injected with control (D and I), 0.3 mg/kg (E and I), 1 mg/kg (F and I), 3 mg/kg (G and I) or 10 mg/kg (H and I) of Minaprine. Tumor growth volumes (A-J) and fold change in the tumor volumes after intraperitoneal injection (D-I) were analyzed. Tumor growth volumes were the determined three times a week for the following 38 days.
For intratumoral injection, 3 10^6 Balb/c-derived CT26 tumor cells were subcutaneously implanted in 8 week-old Balb/c mice (Janvier Laboratories). After 6 days, 10 μM of Minaprine or control phosphate buffer saline (PBS) was injected into tumors (20 μl) and tumor volume was evaluated 3 times a week. For intraperitoneal injection, 5 10^5 Balb/c-derived CT26 tumor cells were subcutaneously implanted in 8 week-old Balb/c mice (Janvier Laboratories). After 12 days, tumor-bearing mice were intraperitonealy injected with different concentrations of Minaprine (0.3, 1, 3 and 10 mg/kg) or PBS. Tumor volume was also evaluated 3 times a week. The experiments were randomized, performed in compliance with the EU Directive 63/2010 and approved by Ethical Committee at Gustave Roussy Cancer Campus (CEEA IRCIV/IGR n^o26).
No statistical methods or criteria were used to estimate sample size or to include/exclude samples. The investigators were not blinded to group allocation during experiments and outcome assessment. Results are expressed as mean value SEM. To determine statistical significance, Two-way ANOVA (FIG. 7A) and Log rank (Mantel-Cox) (FIG. 7I) tests were used for calculation of P values. Prism 6 Software was used for the generation of survival graphs and statistical significance. Statistical significance was given as **p value<0.01 or *p value<0.05.
We first subcutaneously implanted 3 10^6 Balb/c-derived CT26 colon cancer cells in immunocompetent Balb/c mice. After 6 days, tumor-bearing mouse were randomized and 10 μM of Minaprine (3 mg/kg) was injected into tumors. Tumor growth was analyzed during 38 days.
We next determined whether intraperitoneal injections of Minaprine could also impact tumor growth. Thus, 5 10^5 Balb/c-derived CT26 cells were implanted into immunocompetent Balb/c mice. After 12 days, tumor-bearing mice were randomized, intraperitoneally injected with control (FIGS. 7D and 7I) or with Minaprine at different concentrations (FIGS. 7E-7I).

HCT116 cells = experiment: Screening of chemical libraries for IR-mediated cellular cannibalism (imaging flow cytometry, confocal validation); format: cell-based, human; settings: for enhancement of IR-mediated cellular cannibalism: 8 Gy irradiated HCT116 cells, 10 μM compound, 24 h culture, dihydrochloride
Procedure: FIG. 4 Identification of cannibalism modulators triggered by ionizing radiation. Compounds from the Prestwick (A) and CEA (F) libraries were tested for their capacities to induce cellular cannibalism after ionizing radiation. Cannibal cells were detected after homotypic cultures of 8 gray γ-irradiation HCT116 cells in the presence or absence of 10 μM of the Prestwick (A) and CEA […] library compounds. Each dot represents one compound. Representative images are shown in (B, G). (C, H) HCT116 cells were treated with the indicated drugs. After 24 h of treatment, cell death was monitored by staining with 3,3 dihexyloxacarbocyanine iodide (DiOC6(3)) and PI^+, and the percentage of dying (DiOC6(3)^low PI^−, open bars) and dead (DiOC6(3)^low PI^+, closed bars) cells was determined by cytofluorometry. Validation of the cannibalism inducers by fluorescent microscopy. Representative images (D, I) and quantification (E, J) are shown. Results are means s.e.m. of triplicate determinations.
Untreated HCT116 cells were labeled with CMFDA (green fluorescence, CMFDA^+) or CMTMR, (red fluorescence, CMTMR) and treated HCT116 cells with CMFDA (green fluorescence, CMFDA^+). The following cell mixtures were performed: untreated CMTMR^+ HCT116 cells were mixed with untreated CMFDA^+ HCT116 cells, or untreated CMTMR^+ HCT116 cells were mixed with treated CMFDA^+ HCT116 cells. Then, cells were co-cultured during 24 hours in the presence or absence of the pharmacological inhibitor of ROCK, Y27632 (30 μM), the pan-caspase inhibitor, Z-VAD-fmk (ZVAD, 100 μM), the inhibitor of caspase-1, Ac-YVAD-cmk (YVAD, 100 μM), the necroptosis inhibitor, Necrostatin-1 (NEC1, 30 μM), the inhibitor of the vacuolar type H(+)-ATPase (V-ATPase) inhibiting autophagy, Bafilomycin A1 (BafA1, 50 nM), the inhibitor of Cdks with an anti-mitotic activity, Roscovitine (Rosco, 10 μM). After 24 hours of co-culture, both detached and adherent cells were collected and stained with Hoechst […] (10 μg/mL) during 1 hour at 37° C. in warmed complete medium. To detect phosphatidylserine (PS) exposure and plasma membrane permeability, labeled HCT116 cells were successively incubated with Biotin-AnnexinV (BD Pharmingen) as recommended by manufacturer, […] BV786-Streptavidin (BD Biosciences) and 3 μM DRAQ7 (BioStatus) during 15 minutes at 25° C. After washing with PBS solution, samples were immediately analyzed using an imaging flow cytometer FlowSight® (Amnis®, part of EMD Millipore). Data were acquired at a 20× magnification, using INSPIRE software. The 405 nm, 488 nm, and 561 nm lasers were used for excitation. Brightfield, Annexin V-BV786, DRAQ7, CMFDA, CMTMR and Hoechst […] stainings were detected using respectively channels for 420-480 nm, 745-800 nm, 642-745 nm, 480-560 nm, 595-642 nm and 430-505 nm. At least 1000 events of cells per sample were analyzed. Additional single-labeled controls were prepared to normalize fluorescent signal across different channels. Acquired data were analyzed using the IDEAS analysis software (v6.1; Merck-Millipore). Gating strategy was the following. Cells were gated for focused cells using the Gradient RMS feature. Cells were gated for single cells using the aspect ratio and area features. For the cannibalism detection, cells were gated in the double positive CMFDA^+ and CMTMR^+ staining.
To detect PS exposure, plasma membrane permeability and cell cycle progression, cells were after co-culture sequentially labeled with specific fluorescent probes (such as FITC-conjugated AnnexinV, propidium iodide, and Hoechst 33342) and analyzed by flow cytometry. Both detached and adherent cells were collected and stained with Hoechst […] (10 μg/ml) during 1 hour at 37° C. in warmed complete medium. After washing with PBS, HCT116 cells were suspended in 1× binding buffer supplemented with fluorescein isothiocyanate (FITC)-conjugated Annexin V (BD Biosciences) and propidium iodide (PI, 1 μg/mL) (Sigma), as per manufacturer's instructions. […]

Cc1cc(-c2ccccc2)nnc1NCCN1CCOCC1.Cl.Cl [Minaprine dihydrochloride]
tumor growth (CT26 tumor cells; intraperitoneal injection 1 mg/kg 12 days after implant of 5 10^5 CT26 cells): significantly decreased the growth of treated tumors | tumor growth (CT26 tumor cells; intraperitoneal injection 3 mg/kg 12 days after implant of 5 10^5 CT26 cells): significantly decreased the growth of treated tumors | tumor growth (CT26 tumor cells; intraperitoneal injection 10 mg/kg 12 days after implant of 5 10^5 CT26 cells): significantly decreased the growth of treated tumors | tumor growth (CT26 tumor cells; intratumoral injection 3 mg/kg (10 μM) 6 days after implant of 3 10^6 CT26 cells, followed 38 days): significantly decreases the growth of tumors | survival of treated mice (CT26 tumor cells; intratumoral injection 3 mg/kg, CT26 tumors, versus untreated control): increase survival | enhancement of IR-mediated cellular cannibalism (HCT116 cells): efficient cellular cannibalism enhancer | enhancement of IR-mediated cellular cannibalism (HCT116 cells; listed as Minaprine): significantly increased in presence of ionizing radiation | induction of cellular cannibalism (Type IV cell death) (HCT116 cells; cancer cells treated with compound, without IR): favors the induction of Type IV cell death modality
